For one assay, the system named is Streptococcus agalactiae. Briefly: MIC against clinically isolated strains, Streptococcus agalactiae. The class given is cell-based. The note with it: Streptococcus agalactiae (17 strains). The text has this: (§1) Standard strains, including Staphylococcus aureus ATCC29213, S. pneumoniae ATCC49619, E. faecalis ATCC29212, are all available from the American Type Culture Collection.
(§2) Clinically isolated strains: There are total 120 clinical strains of gram-positive bacterium including: 37 strains of Staphylococcus aureus (consisting of 14 strains of methicillin sensitive Staphylococcus aureus MSSA and 23 strains of methicillin resistant Staphylococcus aureus MRSA); 27 strains of Streptococcus pneumoniae (consisting of 13 strains of penicillin sensitive Streptococcus pneumoniae PSSP and 14 strains of penicillin insensitive or resistant Streptococcus pneumoniae PISP+PRSP); 15 strains of Streptococcus pyogenes; 17 strains of Streptococcus agalactiae; 24 stains of Enterococcus faecium (consisting of 12 strains of vancomycin sensitive Enterococcus faecium and 12 strains of vancomycin resistant Enterococcus faecium).
(§3) (2) Tested compounds: Compound 13f was prepared by the methods above, with potency of over 98%; Linezolid was purchased from Pfizer, with potency of 100%.
(§4) Staphylococcus and Enterococcus faecium were incubated in Mueller-Hinton agar medium (MHA medium) at 35° C. for 16-20 h; S. pneumoniae was incubated in Cation-Adjusted Mueller-Hinton Broth medium (CAMHB medium) supplemented with 2.5-5.5% (v/v) lysed horse blood (LHB) at 35° C. for 20-24 h; and Streptococcus were incubated in sheep blood-containing medium (prepared by addition of 5% defibrinated sheep blood into MHA media) at 35° C. for 20-24 h in 5% CO2 environment (CO2 incubator). Before test of the compound activity, each stock of the bacteria strains was activated and colonized in the following manner: the stock was transferred and cultured in a liquid culture medium, the culture liquid was smeared onto an agar plate with an inoculating loop to obtain bacterial colonies on the plate after incubation, and then a colony of the bacteria was chose to be suspended into the liquid culture medium for performing the test of compound activity. As a result, fresh bacteria cells were applied to the test. The standard strains were used as sensitive bacterium to control the quality of the experiments, and a plate or tube containing no antibacterial compounds is used as a blank control for the growth of test strains.
(§5) The minimal inhibitory concentration (MIC) of the test compounds on the strains of Streptococcus pneumoniae was determined by a standard broth macrodilution method, while the MIC of the test compounds on the other bacteria stains was determined by standard agar double dilution methods. The concentration of the test compounds was in the range of 32 mg/L-0.016 mg/L. The bacterial suspensions to be tested were inoculated by a multipoint inoculator, and the inoculation amount at each point is 10^4 CFU. The MIC of the test compound to each strain of the bacteria was determined.

Another assay concerns S. aureus. The assay can be described thus: In vitro antibacterial activity (MIC), S. aureus. The class given is cell-based, Staphylococcus Aureus. To be noted: for MIC: S. aureus (12 strains). The method, then:
Strains: strain ATCC25923 is available from the American Type Culture Collection, and is used as a standard strain of Staphylococcus Aureus;
Liquid medium: MH bouillon culture medium, a product of BD Company, United States of American;
Tested Compounds: compounds 12a, 13 and 14 prepared according to the methods above, and Linezolid purchased from Pfizer.
(§6) The test strain was inoculated into the liquid medium and cultured at 37° C. for 16-18 h. The culture liquid and MH medium were put into two blank wells of a 96-well plate, respectively. Then, the absorptions thereof were measured by a Microplate reader. The difference between the absorption values of the culture liquid and MH medium is the adsorption of the bacteria. The concentration of the culture liquid can be calculated according to the formula of 1OD=50 million CFU/mL. The culture liquid was diluted with the MH bouillon culture medium to 5000 CFU/mL for further use.
(§7) Compounds 12a, 13 and 14 were dissolved in DMSO to 1 mg/mL, and then filtered with a 0.22 μm filter to obtain the compound solutions. And then they were gradually diluted to a desired concentration (10× final concentration) with the liquid medium, so as to obtain a series of dilutions. The final concentration grade of the dilutions of each tested compound consists of 14 concentrations, which includes: 0.03125 μg/mL, […], 0.125 μg/mL, 0.25 μg/mL, […], 1 μg/mL, 2 μg/mL, 4 μg/mL, 8 μg/mL, 16 μg/mL, 32 μg/mL, 64 μg/mL, 128 μg/mL and 256 μg/mL.
(§8) 10 μL of each of the compound dilutions above was added into a well of a 96-well plate. 90 μL of the culture liquid (5000 CFU/mL) was added into each of the wells, respectively, mixed with the dilutions to render the tested compound concentration to the final concentration. The resulted mixture was incubated at 37° C. for 16-18 h, and then the OD630 thereof was measured. A culture liquid free of the tested compounds is used as a blank control, and three parallel tests with the same concentration of each compound were performed. The minimum inhibitory concentration (MIC) of each compound on the standard strain of Staphylococcus Aureus and other test strains was determined. Specifically, among the culture liquid contained in the wells of the micro-plate, the first three lowest concentrations under which growth of the test strains could be observed were chose for further evaluation of the MIC. A culture liquid free of tested compounds was used as a blank control. Each of the culture liquids was homogenized independently, and then was diluted with a sterile saline. Each of the diluted culture liquids was plated onto a MH bouillon plate and incubated at 37° C. for 20 h in incubator. After the incubation, the number of the colonies on each plate was counted. As compared with the blank control group, the lowest concentration of each of the test compound groups, at which 80% reduction in the colony number of the strains was achieved, was recorded as the MIC.

The subject of another assay is S. agalactiae. The assay can be described thus: In vitro antibacterial activity (MIC), S. agalactiae. The class given is cell-based. The note with it: S. agalactiae (5 strains). The method, then: as §6, §7, §8
The subject of another assay is S. pneumoniae. Briefly: In vitro antibacterial activity (MIC), S. pneumoniae. The class given is cell-based. The note with it: S. pneumoniae (10 strains). The method, then:
as §6, §7, §8

The next assay has as its system E. faecalis. Briefly: In vitro antibacterial activity (MIC), E. faecalis. To be noted: E. faecalis (7 strains). The format is cell-based. The method, then:
as §6, §7, §8

In assay [1] the test system is Enterococcus faecium-resistant vancomycin. Briefly: MIC against clinically isolated strains, vancomycin resistant Enterococcus faecium. The class given is cell-based. To be noted: Enterococcus faecium-resistant vancomycin (12 strains).
Source text: as §1, §2, §3, §4, §5

Assay [2] deals with Enterococcus faecium-sensitive vancomycin. The assay can be described thus: MIC against clinically isolated strains, vancomycin sensitive Enterococcus faecium. The class given is cell-based. The note with it: Enterococcus faecium-sensitive vancomycin (12 strains).
Source text: as §1, §2, §3, §4, §5

Converted amounts (≈) assume the structure as drawn. Like-named read-outs stand apart in the source and are kept apart here.

What is called MIC is the smallest concentration in the dilution series that meets the test's criterion for growth inhibition. As to `CC(=O)NC[C@H]1CN(c2ccc(-n3cc(-c4ccccn4)cn3)c(F)c2)C(=O)O1` [Compound 13f, (S)-N-((3-(3-fluoro-4-(4-(pyridin-2-yl)-1H-pyrazol-1-yl)phenyl)-2-oxooxazolidin-5-yl)methyl)acetamide], the MICmode (with Streptococcus agalactiae; in assay [1]; in assay [2]) was 1 µg/L each time. Further, the MICrange in the assay on Streptococcus agalactiae was in the range of 0.5 to 1 µg/L; in assay [1], 1 to 2 µg/L; in assay [2] it was 1 to 2 µg/L. In addition, the MIC was 0.25 to 2 µg/mL (≈ 0.632 to 5.06 µM) with S. aureus (Staphylococcus aureus, read-out: MIC); 0.25 to 2 µg/mL (≈ 0.632 to 5.06 µM) in the assay on S. agalactiae (Streptococcus agalactiae, read-out: MIC); 0.25 to 1 µg/mL (≈ 0.632 to 2.53 µM) in the assay on S. pneumoniae (Streptococcus pneumoniae, read-out: MIC); 0.5 to 2 µg/mL (≈ 1.26 to 5.06 µM) with E. faecalis (Enterococcus faecalis, read-out: MIC). For the same compound, the “activity ranking among test compounds” value with S. aureus (Table 2: S. aureus, S. pneumoniae, S. agalactiae and E. faecalis) is “most optimum activity”.
One may read the MIC50 as an inhibitory concentration at the 50% level, which refers to growth in some studies and to a panel of isolates in others. Low values mean greater potency, high ones weaker potency. By MIC90 is commonly meant the lowest concentration that inhibits either 90% of growth or 90% of the strains tested, depending on the study. `CC(=O)NC[C@H]1CN(c2ccc(N3CCOCC3)c(F)c2)C(=O)O1` [Linezolid, reference compound]: the MIC50 (in the assay with Streptococcus agalactiae; in assay [1]; in assay [2]) was 1 µg/L (≈ 0.00296 µM) each time. For the same compound, the MIC90 (against Streptococcus agalactiae; in assay [1]; in assay [2]) was 1 µg/L (≈ 0.00296 µM) in each case. Besides, the MICmode (against Streptococcus agalactiae; in assay [1]; in assay [2]) was 1 µg/L each time. In addition, the MICrange in the assay with Streptococcus agalactiae fell in the range of 0.5 to 1 µg/L; in assay [1], 1 to 2 µg/L; in assay [2] it was 1 to 2 µg/L. The MIC was 4 to 32 µg/mL in the assay with S. aureus, 4 to 32 µg/mL with S. agalactiae, 2 to 32 µg/mL against S. pneumoniae and 4 to 32 µg/mL against E. faecalis.

(Values after US8946436B2, “Oxazolidinone compounds and their uses in preparation of antibiotics” (Sichuan Gooddoctor Pharmaceutical Group Co., Ltd., priority 2011, dated 2015).)
